Experimental data from PubChem BioAssay (NCI).
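Five compound concentrations were applied to cells in 96-well plates for 48 hours; endpoints were derived by simple linear interpolation of the resulting dose-response curve. The concentration for 50% growth inhibition is given as GI50. TGI is the concentration that stops growth completely.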

How the values were obtained:
Assay in all cases: growth of human tumour cells (NCI), 48 h
HOP-92 NSCLC = tested on: HOP-92 NSCLC
KM12 colon = tested on: KM12 colon
LOX IMVI melanoma = tested on: LOX IMVI melanoma
MALME-3M melanoma = tested on: MALME-3M melanoma
NCI-H23 lung = tested on: NCI-H23 lung
NCI-H460 lung = tested on: NCI-H460 lung
SW-620 colon = tested on: SW-620 colon
U251 CNS = tested on: U251 CNS
CCRF-CEM leukemia = tested on: CCRF-CEM leukemia
K-562 leukemia = tested on: K-562 leukemia

Structure (SMILES) | TGI (HOP-92 NSCLC) [µM] | TGI (KM12 colon) [µM] | TGI (LOX IMVI melanoma) [µM] | TGI (MALME-3M melanoma) [µM] | TGI (NCI-H23 lung) [µM] | TGI (NCI-H460 lung) [µM] | TGI (SW-620 colon) [µM] | TGI (U251 CNS) [µM] | GI50 (HOP-92 NSCLC) [µM] | GI50 (KM12 colon) [µM] | GI50 (LOX IMVI melanoma) [µM] | GI50 (MALME-3M melanoma) [µM] | GI50 (NCI-H23 lung) [µM] | GI50 (NCI-H460 lung) [µM] | GI50 (SW-620 colon) [µM] | GI50 (U251 CNS) [µM] | TGI (CCRF-CEM leukemia) [µM] | GI50 (CCRF-CEM leukemia) [µM] | GI50 (K-562 leukemia) [µM] | TGI (K-562 leukemia) [µM]
CCOC(=O)C(=O)Nc1c(C)cccc1C | > 100 | > 100 | > 100 | > 100 | > 100 | > 100 | > 100 | > 100 | – | – | – | – | – | – | – | – | – | – | – | –
CC(=O)OCC1OC(n2ccc(=O)[nH]c2=O)C(OC(C)=O)C1OC(C)=O (stereo unspecified) | > 100 | > 100 | > 100 | > 100 | > 100 | > 100 | > 100 | > 100 | > 100 | > 100 | > 100 | > 100 | > 100 | > 100 | > 100 | > 100 | – | – | – | –
CCc1cc(O)c(Cl)c(C)c1Cl | 33.7 | 28.5 | 31.8 | 42.7 | 36.9 | 33.7 | 43.6 | 38.1 | – | – | – | – | – | – | – | – | 50.1 | – | – | –
CO/N=C(\C)c1ccc(Nc2cc(-c3ccccc3)nc3c(O)cccc23)cc1 | 33.7 | – | 27.9 | – | 30.6 | – | 40 | 27.2 | 17.5 | – | 14.3 | – | 14.9 | – | 13.6 | 13.3 | 22.6 | 6.64 | 11.6 | 60.4
O=C(CSC(=S)N1CCOCC1)Nc1nc2c(s1)CCCC2 | 96.2 | > 100 | > 100 | > 100 | > 100 | > 100 | – | > 100 | – | – | – | – | – | – | – | – | > 100 | – | – | –
CN(CCOc1ccc(C#N)cc1)CCOc1ccc(C#N)cc1 | – | 66.2 | > 100 | > 100 | > 100 | > 100 | > 100 | > 100 | – | 16.6 | > 100 | > 100 | 22.6 | > 100 | 57.5 | 81.4 | – | – | 16.7 | > 100
COc1ccc(O)c(C#N)c1C#N | – | > 100 | > 100 | > 100 | > 100 | > 100 | > 100 | > 100 | – | – | – | – | – | – | – | – | > 100 | – | – | > 100
CC(=O)n1c2ccccc2c2nc3nc(Oc4ccc(C)cc4)c4ccccc4c3cc21 | – | > 100 | > 100 | > 100 | 78.7 | > 100 | > 100 | > 100 | – | – | – | – | – | – | – | – | > 100 | – | – | > 100
Cc1ccc(C(O)c2cnc(C)n2Cc2ccccc2)cc1 (stereo unspecified) | > 100 | > 100 | > 100 | > 100 | > 100 | > 100 | > 100 | > 100 | – | – | – | – | – | – | – | – | – | – | – | > 100
O=C(O)c1cc(=O)c2[nH]c3ccccc3c2s1 | > 100 | > 100 | – | > 100 | > 100 | > 100 | > 100 | – | – | – | – | – | – | – | – | – | > 100 | – | – | > 100
CC(C)NC(=O)OCCS(=O)c1c(Cl)c(Cl)nn1C (stereo unspecified) | – | > 100 | > 100 | – | > 100 | > 100 | > 100 | > 100 | – | – | – | – | – | – | – | – | > 100 | – | – | > 100
CCCCn1cnc2c(SC)ncnc21 | > 100 | > 100 | > 100 | > 100 | > 100 | > 100 | > 100 | > 100 | – | – | – | – | – | – | – | – | – | – | – | > 100
COc1ccc2c(c1)OC(N(C(C)=O)C(C)=O)=C(C#N)C2c1ccc(F)cc1 (stereo unspecified) | 90.4 | > 100 | > 100 | > 100 | > 100 | 45.5 | > 100 | 54.8 | 10.9 | 0.664 | 3.26 | 21.6 | 4.44 | 1.88 | 0.553 | 1.82 | > 100 | 2.13 | – | –
NC(C(=O)[O-])C(=O)[O-].NC1CCCCC1N.[Pt+4] | – | > 100 | > 100 | 2.92 | > 100 | 14.7 | > 100 | > 100 | – | 12.5 | 2.85 | 0.294 | 13.9 | 2.29 | 1.75 | 4.63 | – | – | 5.8 | > 100
CC(=O)Nc1ccc2c(c1)oc(=O)c1cc(NC(C)=O)ccc12 | > 100 | 52.5 | > 100 | > 100 | > 100 | > 100 | > 100 | > 100 | 29.6 | 21.7 | 75.6 | 35.6 | > 100 | > 100 | > 100 | > 100 | – | – | > 100 | > 100
C[C@@H]1CN(CC(=O)N2CC(C)(C)c3nc(CO)c(Cc4ccc(F)cc4)cc32)[C@@H](CN2CCOC[C@H]2C)CN1 | 19.7 | > 100 | 33.1 | 31.1 | > 100 | > 100 | > 100 | > 100 | 3.79 | 46.2 | 17.5 | 16 | 51.8 | 45.9 | > 100 | 68.5 | > 100 | 31.3 | – | –
O=C1C2=C(c3ccccc31)C(c1ccccc1)NC(=S)N2 (stereo unspecified) | 97.1 | > 100 | – | > 100 | > 100 | > 100 | > 100 | > 100 | – | – | – | – | – | – | – | – | > 100 | – | – | 67.4
c1cnc2[nH]cc(-c3csc(-c4cn(CCCCN5CCOCC5)c5ccccc45)n3)c2c1 | 3.13 | 3.34 | 3.26 | 2.96 | 4.49 | – | 3.54 | – | 1.43 | 1.72 | 1.74 | 1.32 | 2.04 | – | 1.77 | – | 4.03 | 1.98 | 2.02 | 3.93
Nc1nc2c(c(=O)[nH]1)CN(c1ccc(S(N)(=O)=O)cc1)CN2 | > 100 | > 100 | > 100 | > 100 | – | > 100 | > 100 | > 100 | – | – | – | – | – | – | – | – | – | – | – | > 100
